This note sets out measurements from patent US10933043B2, “Methods of treating neurodevelopmental diseases and disorders” (Deakin University, priority 2014, dated 2021).

Structures are written as SMILES. Entries after “also recorded” stand apart in the source; their conditions may differ.

The subject of one data set is primary cortical culture. Nature of the data set: Primary cortical cell cultures of male mouse embryonic foetuses: dendritic length and spine densities. It is filed as cell-based. As for the experimental part: Primary cortical culture was prepared from male mouse foetuses at embryonic day 15.5. Specifically, the effects of BPA and 10-HDA on dendritic length and spine densities were assessed. Four test groups were assessed, mice treated with BPA, mice treated with 10-HDA, mice treated with BPA and 10-HDA, and a vehicle control. Ten neurons were measured and the experiments were duplicated.

The test system of a further data set is BPA exposed mice. As to the kind of experiment: 10-HDA treatment of BPA exposed mice: social interaction and spontaneous grooming. Type of data set: in vivo, mouse. As for the experimental part: As described in Example 2, mice with autistic-like behaviour were generated by mating female wild type FVBN mice with male CYP19-GFP mice and followed by subcutaneous injection of 50 […] of BPA on gestational days 10.5 to 14.5.
After weaning, control and BPA exposed pups were administered 10-HDA daily (0 and 500 μg/kg/day; dissolved in saline) by intraperitoneal injection for a maximum period of 6 weeks. Six litters were initially studied after 3 weeks of daily treatment for anxiety, memory, social interaction (FIG. 4A) and spontaneous grooming.
Data collection was conducted by investigators who were blind to the respective genotypes or treatment of any given animal. Two criteria were assessed as the basis for the behavioural studies, social interaction, and spontaneous grooming activity.
(§1) With regard to the social interaction study, the test mouse was placed in a social test box, a three-chambered clear plastic box with doorways in the dividing walls to allow access into each chamber. Each side-chamber contained a wire cage. The test mouse was evaluated over three sessions. In session 1, the test mouse was placed in the middle chamber and allowed to explore all 3 chambers for 10 min. In session 2, an unfamiliar same sex and age mouse (stranger 1) was enclosed in the wire cage either side of the central chamber, and the test mouse was allowed to explore the entire social test box for a period of 10 min. In session 3, a new unfamiliar mouse was placed in the previously empty wire cage such that the test mouse has a choice between the first, now familiar, already-investigated mouse (stranger 1) and the novel unfamiliar mouse (stranger 2). Mouse movements were recorded and tracked using the TopScan video tracking system. Durations in each chamber, time spent sniffing each wire cage, and the number of transitions between chambers were analysed.
Spontaneous Grooming activity was used as a measure of repetitive activity. The spontaneous grooming of the mice were recorded by the TopScan video tracking system during the session 1 or the 3 chamber studies described above. The duration and frequency of grooming were the parameters of measurements and analysed blind.
The male animals were then re-administered with either vehicle or 10-HDA as described above for 3 weeks, and subjected to behavioural studies again (FIG. 4C).

Data set [1] concerns aromatase cells in the amygdala. As to the kind of experiment: Patch clamping of aromatase cells in the amygdala in brain slices of treated mice. Type of data set: in vivo, mouse. The text has this: After behaviour studies, the animals were sacrificed and electrophysiological data were gathered from the brain slices by patch clamping of aromatase cells in the amygdala.
(The patch-clamp technique gives a direct electrical read-out from membranes.)

Data set [2] relates to differentiated mouse motor neuronal NSC-34 cells. Nature of the data set: Protection of NSC-34 cells from toxic BPA exposure, MTT assay. It is filed as cell-based. To be noted: 1 mM compound, 500 ng/ml of BPA, MTT assay 72 hours later. As for the experimental part: To compare the respective activities of trans and cis 10-HDA 1 mM respectively of cis or trans 10-HDA in the presence of 500 ng/ml of BPA (toxic level) was added to differentiated mouse motor neuronal NSC-34 cells. Cell survival was determined by MTT assay 72 hours later.
A general note: Tetrazolium assays rely on reduction of a dye to a coloured formazan, in cell work by metabolically active cells.

Another data set relates to aromatase. As to the kind of experiment: Aromatase immunohistochemistry in human neuroblastoma SH-SY5Y cells exposed to BPA with or without 10-HDA. It is filed as cell-based. To be noted: for effect on BPA-induced changes of aromatase expression pattern and neurites: 25 μg/L BPA + 1 mM 10 HDA. On the procedure: FIG. 1: Effects of BPA and 10-HDA on aromatase expression in human neuroblastoma SH-SY5Y cells. Under normal conditions, SH-SY5Y cells express aromatase which is a membrane bound protein in endoplasmic reticulum, and appears as green punctate staining eventually distributed within the cell by immunohistochemistry. In the presence of 25 μg/L bisphenol A the aromatase became aggregates. The effects of bisphenol A can be ameliorated by addition of 10HDA. (a) +0 μg/L BPA (Vehicle)—Clear staining of aromatase (green) evenly distributed in the cytoplasm and along the neurites, as tiny “dots”. A lot of healthy cells evenly distributed over the surface area of the coverslip. B-tubulin (red) is highly expressed throughout the cytoplasm and neurites. […] A decrease in 13-tubulin expression was also observed in most cells that have lost their neurites. […] (c) +25 μg/L BPA+1 mM 10 HDA—Good neurite growth and even aromatase distribution throughout the cytoplasm was observed.
Human neuroblastoma SHY-SY-5Y cells were cultured were cultured in Dulbecco's Modified Eagle Medium supplemented with 10% heat-inactivated Fetal Bovine Serum, 1% penicillin and 1% L-Glutamine at 37° C. in a humidified atmosphere of 95% air and 5% CO2. The localization of aromatase in these cells can be detected using immunohistochemistry with antibody specific to aromatase. Under normal conditions, aromatase appears as punctuate staining throughout the cells, as it is a membrane bound protein in the endoplasmic reticulum.

Data set [3] deals with neurons in the somatosensory cortex. As to the kind of experiment: Dendritic length of neurons in the somatosensory cortex of treated mice. Type of data set: in vivo, mouse. To be noted: BPA exposed mice with 10-HDA treatment.
The next data set has as its system mice. As to the kind of experiment: In utero BPA exposure of mice: offspring social interaction and stereology neuron counts. It is filed as in vivo, mouse. As for the experimental part:
BPA (50 μg/kg) was thus administered to pregnant mice mid-gestation (i.e. embryonic days 10.5 to 14.5). […] A further study was conducted to examine the effects of BPA exposure on numbers of aromatase-GFP positive neurons in utero (FIG. 3). The medial amygdala is involved in social interaction and highly expressed aromatase.
as §1

Where [4] appears, read: BPA, male mouse embryonic day 15.5 cortical neurons.

`O=C(O)/C=C/CCCCCCCO` [10-HDA, 10-hydroxy-2-decenoic acid]: in the data set with primary cortical culture (BPA and 10-HDA), the “effect against BPA on spine density and dendritic length” value is recorded as “reverse or protect against the effect of BPA”. Also, in the data set on primary cortical culture (primary cortical culture), the “neurites and spines formation” value is “has the capacity to stimulate neurites and spines formation”. In addition, in the data set on BPA exposed mice (BPA exposed animals, 10-HDA 500 μg/kg/day intraperitoneal daily, 3 weeks), the “social interaction deficit and autistic-like behaviour” value was “could ameliorate the social interaction deficit and autistic-like behaviour”. The excessive grooming entry in the data set on BPA exposed mice (BPA exposed male offspring, 10-HDA treatment 3 weeks) was “ameliorated”. Besides, in the data set on BPA exposed mice (BPA-exposed male animals, treatments withdrawn for 3 months), the “social interaction after treatment withdrawal” value is “withdrawal led to presentation of social interaction deficit”. Moreover, in data set [1] (BPA exposed mice with 10-HDA treatment), the “resistance of the neurons” value is recorded as “restored resistance to normal”. For the same compound, in data set [2], the “cell survival (protection against BPA toxicity)” value is “exhibits neuroprotective effects”. For the same compound, the “effect on BPA-induced changes of aromatase expression pattern and neurites” value was “can protect against the denaturing effect of bisphenol A on aromatase” with aromatase (SH-SY5Y cells); “ameliorates the effects of BPA on the expression pattern of aromatase and neurites” in the data set on aromatase (SH-SY5Y cells, listed as 10HDA). The “dendritic length of the neurons” value in data set [3] is “restored the dendritic length of the neurons in the somatosensory cortex to normal length”.
Regarding `O=C(O)/C=C\CCCCCCCO` [cis 10-HDA], in data set [2], the “cell survival (protection against BPA toxicity)” value was “does not protect against BP toxicity”.
As to `CC(C)(c1ccc(O)cc1)c1ccc(O)cc1` [BPA, bisphenol A], in the data set on primary cortical culture (setting [4]), the “dendritic length of neurons” value was “decreased” and the spine density entry is “decreased”. For the same compound, the grooming entry in the data set on BPA exposed mice (50 μg/kg/day of BPA exposed male offspring) is listed as “excessive grooming”. For the same compound, the “resistance of the neurons” value in data set [1] (BPA exposure, patch clamping of brain slices) is given as “reduced the resistance of the neurons”. Also, in the data set on mice (BPA 50 μg/kg to pregnant mice embryonic days 10.5 to 14.5, WT male offspring), the ASD-like behaviours result was “exhibit ASD-like behaviours”. Also, the “time spent with the stranger mice (social interaction)” value with mice (BPA 50 μg/kg to pregnant mice embryonic days 10.5 to 14.5, male offspring vs vehicle exposed male or BPA exposed female offspring) is on record as “significantly less time”. The “numbers of aromatase-GFP positive neurons” value in the data set with mice (BPA exposure in utero, standard Stereology method) is listed as “significantly reduced”. In addition, the “fewer neurons in the medial amygdala” value in the data set with mice (male offspring exposed to BPA) turned out to be 13.5%. Further, the neurites result with aromatase (25 μg/L BPA, SH-SY5Y cells) is listed as “Some populations of cells are starting to lose their neurites”. Besides, in the data set on aromatase (25 μg/L BPA, SH-SY5Y cells that have lost their neurites), the β-tubulin expression entry is given as “decrease”. The aromatase localization/staining pattern result with aromatase (25 μg/L BPA, SH-SY5Y cells, immunohistochemistry) is “aromatase forms aggregate and will lose its function; also recorded: could denature aromatase in vitro; also recorded: Aromatase aggregates start to form”.
